Reference: US8575218B2, “Thiol-containing compounds for the removal of elements from tissues and formulations therefor” (priority 2009, dated 2013)

How the values were obtained:
[1] = Solubility of isolated product in solvents; format: physicochemical
[2] = tested on: goldfish; assay: Exposure of goldfish to mercuric acetate with and without chelators; format: in vivo
Protocol: Individual goldfish were placed in 200 ml water with 10 mM sodium chloride in 250 ml Erlenmeyer flasks (pH 7.00). Air was pumped into the flasks to maintain a healthy supply of oxygen. The 24 hour day was divided in to a 12 hour light/dark photoperiod. The goldfish were allowed to acclimatize for a week before the experiment was conducted, with daily water changes. Goldfish were fed standard fish food for 15 minutes each day before the water was changed.
The chelate ligands were dissolved in dimethyl sulfoxide (DMSO, 0.5 ml) before addition to the flasks. The experimental treatments evaluated are as listed in Table 1 below, and included mercuric acetate, B9, EEAB9, GB9, GEEAB9, and DMSO in the amounts shown in Table 1. B9 and EEAB9 were dissolved in DMSO (0.5 ml) before addition to the water. No precipitate was formed during the dissolution.

Structure (SMILES)	Solubility in solvents [1]	Goldfish state (Alive/Dead) at 30 min ([2]; mercuric acetate 0.5 mM + DMSO 0.5 ml)	Goldfish state (Alive/Dead) at 30 min ([2]; mercuric acetate 0.5 mM alone)	Time to death of goldfish ([2]; mercuric acetate without chelator)
NC(CCC(=O)NC(CSSCCNC(=O)c1cccc(C(=O)NCCSSCC(NC(=O)CCC(N)C(=O)O)C(=O)NCC(=O)O)c1)C(=O)NCC(=O)O)C(=O)O (stereo not shown) [GB9]	readily dissolved in water	–	–	–
CC(=O)[O-].CC(=O)[O-].[Hg+2] [Mercuric acetate]	–	Dead	Dead	≤ 30 min
